Measured values as given in patent US12286427B2, “Heterocyclic compounds and uses thereof” (Kumquat Biosciences Inc., priority 2020, dated 2025).

What was measured:
[1] = molecular target: T1, wildtype Kras (Homo sapiens, UniProt P01116); assay: Nucleotide exchange assay (SOS1-mediated, BODIPY FL GDP fluorescence); assay type: biochemical; details: 250 nM or 500 nM GDP-loaded K-Ras, SOS1 catalytic domain, fluorescent labelled GDP 0.36 μM, 70 minutes; read-out: IC50 against wildtype Kras
T1 construct: GST (N); made in house; host or cells: E. coli, e.g. BL21 (DE3)
T1 sequence (P01116 1-188 isoform P01116-2): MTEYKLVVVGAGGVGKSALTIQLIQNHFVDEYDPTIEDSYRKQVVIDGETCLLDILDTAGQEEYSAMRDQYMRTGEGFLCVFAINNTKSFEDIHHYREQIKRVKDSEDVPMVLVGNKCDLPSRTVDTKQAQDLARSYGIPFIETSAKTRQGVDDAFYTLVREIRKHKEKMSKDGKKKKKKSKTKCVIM
Description: (§1) For example, 250 nM or 500 nM GDP-loaded K-Ras proteins (e.g., wildtype or a mutant thereof including those mentioned in Example 6), each was incubated with different concentrations of compounds (for example ˜60 μM, ˜20 μM, ˜6.7 μM, ˜2.2 μM, ˜0.7 μM, ˜0.2 μM subject compound). A control reaction without subject compound was also included. SOS1 (catalytic domain) protein was added to the K-Ras protein solution. The nucleotide exchange reaction was initiated by adding fluorescent labelled GDP (Guanosine 5′-Diphosphate, BODIPY™ FL 2′-(or-3′)—O—(N-(2-Aminoethyl) Urethane) to a final concentration of 0.36 μM. Fluorescence was measured every 30 s for 70 minutes at 490 nm/515 nm (excitation/emission) in a M1000Pro plate reader (Tecan). Data is exported and analyzed to calculate an IC50 using GraphPad Prism (GraphPad Software). Samples were tested with or without a subject compound disclosed herein including compounds exemplified in Table 1 to assess each compound's ability to inhibit K-Ras signaling or its IC50 against a given Ras protein (e.g., a given mutant K-Ras) of interest.

[2] = molecular target: mutant Kras (Homo sapiens, UniProt P01116); assay: as above; assay type: biochemical; details: 250 nM or 500 nM GDP-loaded K-Ras, SOS1 catalytic domain, fluorescent labelled GDP 0.36 μM, 70 minutes; read-out: IC50 against mutant Kras
Sequence of mutant Kras (P01116 whole entry G12D, form open, the tested form may be a part): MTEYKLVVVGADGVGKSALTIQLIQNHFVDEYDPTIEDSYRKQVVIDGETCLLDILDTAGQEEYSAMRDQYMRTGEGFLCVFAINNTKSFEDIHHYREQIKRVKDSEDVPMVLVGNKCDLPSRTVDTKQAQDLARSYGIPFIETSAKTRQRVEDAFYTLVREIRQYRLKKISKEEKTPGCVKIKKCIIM
Description: as §1

Row | Compound | IC50 [1] [µM] | IC50 [2] [nM]
1 | CN1CCC[C@H]1COc1nc(N2C[C@H](N)C[C@@H](F)C2)c2cc(Cl)c(-c3cccc4sc(N)nc34)c(F)c2n1 [Compound 7, 4-(4-((3R,5R)-3-amino-5-fluoropiperidin-1-yl)-6-chloro-8-fluoro-2-(((S)-1-methylpyrrolidin-2-yl)methoxy)quinazolin-7-yl)benzo[d]thiazol-2-amine] | > 5 | 500 to 5000
2 | Nc1sc2c(F)ccc(-c3c(Cl)cc4c(N5C[C@H]6CC[C@@H](C5)N6)nc(OC[C@@]56CCCN5C[C@H](F)C6)nc4c3F)c2c1C1CC1 [Compound 20, 4-(4-((1R,5S)-3,8-diazabicyclo[3.2.1]octan-3-yl)-6-chloro-8-fluoro-2-(((2R,7aS)-2-fluorotetrahydro-1H-pyrrolizin-7a(5H)-yl)methoxy)quinazolin-7-yl)-3-cyclopropyl-7-fluorobenzo[b]thiophen-2-amine] | 0.5 to 5 | < 500
3 | Cc1c(N)sc2cccc(-c3c(Cl)cc4c(N5C[C@H]6CC[C@@H](C5)N6)nc(OC[C@@]56CCCN5C[C@H](F)C6)nc4c3F)c12 [Compound 22, 4-(4-((1R,5S)-3,8-diazabicyclo[3.2.1]octan-3-yl)-6-chloro-8-fluoro-2-(((2R,7aS)-2-fluorotetrahydro-1H-pyrrolizin-7a(5H)-yl)methoxy)quinazolin-7-yl)-3-methylbenzo[b]thiophen-2-amine] | < 0.5 | < 500
4 | CN1CCC[C@H]1COc1nc(N2C[C@H](N)C[C@@H](O)C2)c2cc(Cl)c(-c3cccc4sc(N)nc34)c(F)c2n1 [Compound 4, (3R,5R)-5-amino-1-(7-(2-aminobenzo[d]thiazol-4-yl)-6-chloro-8-fluoro-2-(((S)-1-methylpyrrolidin-2-yl)methoxy)quinazolin-4-yl)piperidin-3-ol] | > 5 | < 500
5 | COc1nc2c(N3CCNCC3)nc(OC[C@@]34CCCN3C[C@H](F)C4)nc2cc1-c1ccc(F)c2sc(N)nc12 [Compound 18, 7-fluoro-4-(2-(((2R,7aS)-2-fluorotetrahydro-1H-pyrrolizin-7a(5H)-yl)methoxy)-6-methoxy-4-(piperazin-1-yl)pyrido[3,2-d]pyrimidin-7-yl) benzo[d]thiazol-2-amine] | > 5 | 500 to 5000
6 | CN1CCC[C@H]1COc1nc(N2C[C@H](N)C[C@H](O)C2)c2cc(Cl)c(-c3cccc4sc(N)nc34)c(F)c2n1 [Compound 3, (3S,5R)-5-amino-1-(7-(2-aminobenzo[d]thiazol-4-yl)-6-chloro-8-fluoro-2-(((S)-1-methylpyrrolidin-2-yl)methoxy)quinazolin-4-yl)piperidin-3-ol] | 0.5 to 5 | < 500
7 | COc1nc2c(N3CC4CCC(C3)N4)nc(OC[C@@]34CCCN3C[C@H](F)C4)nc2cc1-c1ccc(F)c2sc(N)nc12 [Compound 14, 4-(4-(3,8-diazabicyclo[3.2.1]octan-3-yl)-2-(((2R,7aS)-2-fluorotetrahydro-1H-pyrrolizin-7a(5H)-yl)methoxy)-6-methoxypyrido[3,2-d]pyrimidin-7-yl)-7-fluorobenzo[d]thiazol-2-amine] | 0.5 to 5 | < 500
8 | CN1CCC[C@H]1COc1nc(N2CC[C@H](N)C2)c2cc(Cl)c(-c3cccc4sc(N)nc34)c(F)c2n1 [Compound 11, 4-(4-((S)-3-aminopyrrolidin-1-yl)-6-chloro-8-fluoro-2-(((S)-1-methylpyrrolidin-2-yl)methoxy)quinazolin-7-yl)benzo[d]thiazol-2-amine] | 0.5 to 5 | < 500
9 | N#Cc1c(N)sc2c(F)ccc(-c3c(Cl)cc4c(N5C[C@H]6CC[C@@H](C5)N6)nc(OC[C@@]56CCCN5C[C@H](F)C6)nc4c3F)c12 [Compound 19, 4-(4-((1R,5S)-3,8-diazabicyclo[3.2.1]octan-3-yl)-6-chloro-8-fluoro-2-(((2R,7aS)-2-fluorotetrahydro-1H-pyrrolizin-7a(5H)-yl)methoxy)quinazolin-7-yl)-2-amino-7-fluorobenzo[b]thiophene-3-carbonitrile] | < 0.5 | < 500
10 | CN1CCC[C@H]1COc1nc(N2CCC[C@@H](N)C2)c2cc(Cl)c(-c3cccc4sc(N)nc34)c(F)c2n1 [Compound 8, 4-(4-((R)-3-aminopiperidin-1-yl)-6-chloro-8-fluoro-2-(((S)-1-methylpyrrolidin-2-yl)methoxy)quinazolin-7-yl)benzo[d]thiazol-2-amine] | 0.5 to 5 | < 500

Next, values leading:

Row | IC50 [1] [µM] | IC50 [2] [nM] | Compound
11 | 0.5 to 5 | < 500 | CN1CCC[C@H]1COc1nc(N2CC(N)CC(O)C2)c2cc(Cl)c(-c3cccc4sc(N)nc34)c(F)c2n1 (stereo partly drawn) [Compound 5, 5-amino-1-(7-(2-aminobenzo[d]thiazol-4-yl)-6-chloro-8-fluoro-2-(((S)-1-methylpyrrolidin-2-yl)methoxy)quinazolin-4-yl)piperidin-3-ol]
12 | 0.5 to 5 | < 500 | COc1nc2c(N3CC4CCC(C3)N4)nc(OCC34CCCN3CCC4)nc2cc1-c1ccc(F)c2sc(N)nc12 [Compound 17, 4-(4-(3,8-diazabicyclo[3.2.1]octan-3-yl)-6-methoxy-2-((tetrahydro-1H-pyrrolizin-7a(5H)-yl)methoxy)pyrido[3,2-d]pyrimidin-7-yl)-7-fluorobenzo[d]thiazol-2-amine]
13 | < 0.5 | < 500 | Cc1c(N)sc2c(F)ccc(-c3c(Cl)cc4c(N5C[C@H]6CC[C@@H](C5)N6)nc(OC[C@@]56CCCN5C[C@H](F)C6)nc4c3F)c12 [Compound 21, 4-(4-((1R,5S)-3,8-diazabicyclo[3.2.1]octan-3-yl)-6-chloro-8-fluoro-2-(((2R,7aS)-2-fluorotetrahydro-1H-pyrrolizin-7a(5H)-yl)methoxy)quinazolin-7-yl)-7-fluoro-3-methylbenzo[b]thiophen-2-amine]
14 | > 5 | < 500 | Nc1nc2c(-c3cnc4c(N5CC6CCC(C5)N6)nc(OC[C@@]56CCCN5C[C@H](F)C6)nc4c3)ccc(F)c2s1 [Compound 13, 4-(4-(3,8-diazabicyclo[3.2.1]octan-3-yl)-2-(((2R,7aS)-2-fluorotetrahydro-1H-pyrrolizin-7a(5H)-yl)methoxy)pyrido[3,2-d]pyrimidin-7-yl)-7-fluorobenzo[d]thiazol-2-amine]
15 | 0.5 to 5 | 500 to 5000 | CN1CCC[C@H]1COc1nc(N2C[C@@H](N)[C@@H](F)C2)c2cc(Cl)c(-c3cccc4sc(N)nc34)c(F)c2n1 [Compound 10, 4-(4-((3R,4S)-3-amino-4-fluoropyrrolidin-1-yl)-6-chloro-8-fluoro-2-(((S)-1-methylpyrrolidin-2-yl)methoxy)quinazolin-7-yl)benzo[d]thiazol-2-amine]
16 | > 5 | < 500 | Nc1nc2c(-c3cc4nc(OCC56CCCN5CCC6)nc(N5CC6CCC(C5)N6)c4nc3O)ccc(F)c2s1 [Compound 16, 7-(2-amino-7-fluorobenzo[d]thiazol-4-yl)-4-(3,8-diazabicyclo[3.2.1]octan-3-yl)-2-((tetrahydro-1H-pyrrolizin-7a(5H)-yl)methoxy)pyrido[3,2-d] pyrimidin-6-ol]
17 | 0.5 to 5 | < 500 | Nc1nc2c(-c3c(Cl)cc4c(N5CCNCC5)nc(OCC56CCCN5CCC6)nc4c3F)cccc2s1 [Compound 12, 4-(6-chloro-8-fluoro-4-(piperazin-1-yl)-2-((tetrahydro-1H-pyrrolizin-7a(5H)-yl)methoxy)quinazolin-7-yl)benzo[d]thiazol-2-amine]
18 | > 5 | < 500 | COc1nc2c(N3C4CCC3CNC4)nc(OC[C@@]34CCCN3C[C@H](F)C4)nc2cc1-c1ccc(F)c2sc(N)nc12 [Compound 15, 4-(4-(3,8-diazabicyclo[3.2.1]octan-8-yl)-2-(((2R,7aS)-2-fluorotetrahydro-1H-pyrrolizin-7a(5H)-yl)methoxy)-6-methoxypyrido[3,2-d]pyrimidin-7-yl)-7-fluorobenzo[d]thiazol-2-amine]
19 | > 5 | 500 to 5000 | CN1CCC[C@H]1COc1nc(N2C[C@H](N)C[C@H](F)C2)c2cc(Cl)c(-c3cccc4sc(N)nc34)c(F)c2n1 [Compound 6, 4-(4-((3R,5S)-3-amino-5-fluoropiperidin-1-yl)-6-chloro-8-fluoro-2-(((S)-1-methylpyrrolidin-2-yl)methoxy)quinazolin-7-yl)benzo[d]thiazol-2-amine]
